Source: PMC9927415, “Tyrosine Kinase Inhibitors Display Potent Activity against Cryptosporidium parvum” (Microbiology Spectrum, 2022)

How the values were obtained:
[1] = Host cell cytotoxicity assay (CellTiter-Glo); conditions: human, HepG2 cells
Method: HepG2 cells were grown in Eagle’s Minimum Essential Medium (MEM) containing 10% FBS, 1% nonessential amino acids (NEAA) and 1% penicillin/streptomycin to >50% confluence prior to harvesting. Cells were suspended in media and 3000 cells per well were added onto 384-well clear bottom plates. Prior to addition of the cell suspension, the screening compounds (250 nl) were predispensed into plates using a liquid handler. Plates were incubated for 48 h at 37°C, 5% CO2. After 48 h of incubation, plates were equilibrated at room temperature for 30 min before luminescence signal was measured using CellTiter-Glo Reagent. Plates were kept at room temperature for 10 min to stabilize the signal and then read using a ViewLux luminescence reader. The HepG2 CC50 (from the host cell cytotoxicity assays) and C. parvum mean EC50 (from parasite growth inhibition assays) values were used to calculate selectivity index.

PAK1 = biological target: T1, PAK1 (Homo sapiens, UniProt Q13153); test: KINOMEscan competitive binding; conditions: n=1, read-out: Percent inhibition, PAK1
T1 construct: purchased DiscoverX (KINOMEscan)
T1 sequence (Q13153 whole entry): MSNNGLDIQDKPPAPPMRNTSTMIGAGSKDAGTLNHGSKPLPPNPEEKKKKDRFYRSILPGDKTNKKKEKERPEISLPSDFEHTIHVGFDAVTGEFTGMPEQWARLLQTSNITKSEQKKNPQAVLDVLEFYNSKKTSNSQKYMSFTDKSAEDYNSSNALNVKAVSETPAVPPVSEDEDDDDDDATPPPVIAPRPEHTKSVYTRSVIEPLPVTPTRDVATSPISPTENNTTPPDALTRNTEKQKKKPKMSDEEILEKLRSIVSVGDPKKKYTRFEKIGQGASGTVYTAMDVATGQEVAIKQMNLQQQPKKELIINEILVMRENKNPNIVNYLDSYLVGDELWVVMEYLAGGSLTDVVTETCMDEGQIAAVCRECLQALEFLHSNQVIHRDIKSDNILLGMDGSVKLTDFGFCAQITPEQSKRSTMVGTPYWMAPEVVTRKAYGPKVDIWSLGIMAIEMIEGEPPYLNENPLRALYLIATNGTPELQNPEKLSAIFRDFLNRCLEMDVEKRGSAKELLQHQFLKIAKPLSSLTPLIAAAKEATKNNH

PDPK1 = biological target: T2, PDPK1 (Homo sapiens, UniProt O15530); test: KINOMEscan competitive binding; conditions: n=1, read-out: Percent inhibition, PDPK1
T2 construct: purchased DiscoverX (KINOMEscan)
T2 sequence (O15530 1-556): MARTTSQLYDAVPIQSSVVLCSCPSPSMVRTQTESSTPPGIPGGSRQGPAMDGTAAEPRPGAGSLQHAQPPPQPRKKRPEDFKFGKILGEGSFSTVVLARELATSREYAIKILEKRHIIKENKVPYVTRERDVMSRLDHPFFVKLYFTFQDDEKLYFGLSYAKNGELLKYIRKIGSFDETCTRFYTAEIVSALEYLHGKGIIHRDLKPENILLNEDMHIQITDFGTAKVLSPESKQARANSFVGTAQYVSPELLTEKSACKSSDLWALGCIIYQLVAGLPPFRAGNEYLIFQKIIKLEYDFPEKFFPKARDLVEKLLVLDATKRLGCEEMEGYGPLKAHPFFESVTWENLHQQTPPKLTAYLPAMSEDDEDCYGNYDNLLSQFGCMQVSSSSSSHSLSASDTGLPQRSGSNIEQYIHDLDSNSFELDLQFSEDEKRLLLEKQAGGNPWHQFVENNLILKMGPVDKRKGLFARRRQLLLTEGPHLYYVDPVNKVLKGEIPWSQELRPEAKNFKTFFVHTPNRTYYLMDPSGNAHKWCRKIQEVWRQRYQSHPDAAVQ

PKN2 = biological target: T3, PKN2 (Homo sapiens, UniProt Q16513); test: KINOMEscan competitive binding; conditions: n=1, read-out: Percent inhibition, PKN2
T3 construct: purchased DiscoverX (KINOMEscan)
T3 sequence (Q16513 whole entry): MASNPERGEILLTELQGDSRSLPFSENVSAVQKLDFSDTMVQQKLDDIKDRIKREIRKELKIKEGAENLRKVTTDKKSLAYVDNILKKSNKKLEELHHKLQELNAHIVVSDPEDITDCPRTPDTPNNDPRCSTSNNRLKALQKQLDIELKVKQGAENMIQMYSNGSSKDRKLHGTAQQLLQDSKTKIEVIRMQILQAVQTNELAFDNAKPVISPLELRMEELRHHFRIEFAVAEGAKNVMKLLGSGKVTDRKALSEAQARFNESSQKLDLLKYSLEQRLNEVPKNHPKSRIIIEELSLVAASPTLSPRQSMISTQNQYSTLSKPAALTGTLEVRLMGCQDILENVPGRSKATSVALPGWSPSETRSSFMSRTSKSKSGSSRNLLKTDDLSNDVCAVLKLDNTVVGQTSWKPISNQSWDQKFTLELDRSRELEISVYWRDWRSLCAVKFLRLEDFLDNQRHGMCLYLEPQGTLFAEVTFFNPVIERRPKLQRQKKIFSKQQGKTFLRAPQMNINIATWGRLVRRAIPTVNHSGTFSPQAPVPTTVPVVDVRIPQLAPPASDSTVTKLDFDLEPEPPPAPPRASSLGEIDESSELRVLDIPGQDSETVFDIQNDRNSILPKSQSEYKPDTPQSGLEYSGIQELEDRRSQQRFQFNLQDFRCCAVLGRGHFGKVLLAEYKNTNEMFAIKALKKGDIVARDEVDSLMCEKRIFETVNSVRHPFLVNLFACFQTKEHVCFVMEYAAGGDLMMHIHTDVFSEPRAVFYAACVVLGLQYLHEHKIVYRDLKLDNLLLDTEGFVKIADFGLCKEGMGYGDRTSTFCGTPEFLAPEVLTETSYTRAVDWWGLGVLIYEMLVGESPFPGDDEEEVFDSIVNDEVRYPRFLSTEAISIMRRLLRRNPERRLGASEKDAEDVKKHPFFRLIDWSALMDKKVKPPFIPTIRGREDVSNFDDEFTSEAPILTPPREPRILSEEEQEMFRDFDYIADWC

RAF1 = biological target: T4, RAF1 (Homo sapiens, UniProt P04049); test: KINOMEscan competitive binding; conditions: n=1, read-out: Percent inhibition, RAF1
T4 construct: purchased DiscoverX (KINOMEscan)
T4 sequence (P04049 whole entry): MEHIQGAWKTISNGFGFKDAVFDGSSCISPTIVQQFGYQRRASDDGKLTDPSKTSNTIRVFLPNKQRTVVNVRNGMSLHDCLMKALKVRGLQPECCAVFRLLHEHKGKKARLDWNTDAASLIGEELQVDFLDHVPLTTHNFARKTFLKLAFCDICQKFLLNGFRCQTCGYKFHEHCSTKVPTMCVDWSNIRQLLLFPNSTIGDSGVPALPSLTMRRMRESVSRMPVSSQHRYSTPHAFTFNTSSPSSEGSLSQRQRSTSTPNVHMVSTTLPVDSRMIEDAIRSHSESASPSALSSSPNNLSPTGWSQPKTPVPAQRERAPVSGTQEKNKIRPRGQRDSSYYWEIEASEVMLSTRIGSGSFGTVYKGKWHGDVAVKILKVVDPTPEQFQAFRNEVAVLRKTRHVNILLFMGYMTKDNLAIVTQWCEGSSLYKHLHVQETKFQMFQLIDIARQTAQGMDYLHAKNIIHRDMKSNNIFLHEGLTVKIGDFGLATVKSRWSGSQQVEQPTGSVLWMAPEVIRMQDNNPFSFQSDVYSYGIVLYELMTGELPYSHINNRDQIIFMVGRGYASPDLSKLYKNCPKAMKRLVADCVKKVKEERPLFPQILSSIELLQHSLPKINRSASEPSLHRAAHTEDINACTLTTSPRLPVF

RPS6KA4(Kin.Dom.1) = biological target: T5, RPS6KA4(Kin.Dom.1) (Homo sapiens, UniProt O75676); test: KINOMEscan competitive binding; conditions: n=1, read-out: Percent inhibition, RPS6KA4(Kin.Dom.1)
T5 construct: RPS6KA4(Kin.Dom.1); purchased DiscoverX (KINOMEscan)
T5 sequence (O75676 1-371 limits assumed): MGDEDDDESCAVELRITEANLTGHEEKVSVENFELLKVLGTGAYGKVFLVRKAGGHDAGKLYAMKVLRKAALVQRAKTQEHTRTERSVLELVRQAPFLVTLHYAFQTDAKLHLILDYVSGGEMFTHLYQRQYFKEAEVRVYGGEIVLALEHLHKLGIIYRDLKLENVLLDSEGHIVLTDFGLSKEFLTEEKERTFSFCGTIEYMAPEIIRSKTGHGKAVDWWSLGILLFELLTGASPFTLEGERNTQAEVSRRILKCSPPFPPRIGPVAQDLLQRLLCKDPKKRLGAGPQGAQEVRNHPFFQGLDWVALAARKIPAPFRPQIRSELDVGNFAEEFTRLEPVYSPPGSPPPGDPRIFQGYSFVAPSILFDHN

RPS6KA6(Kin.Dom.1) = biological target: T6, RPS6KA6(Kin.Dom.1) (Homo sapiens, UniProt Q9UK32); test: KINOMEscan competitive binding; conditions: n=1, read-out: Percent inhibition, RPS6KA6(Kin.Dom.1)
T6 construct: RPS6KA6(Kin.Dom.1); purchased DiscoverX (KINOMEscan)
T6 sequence (Q9UK32 1-400 limits assumed): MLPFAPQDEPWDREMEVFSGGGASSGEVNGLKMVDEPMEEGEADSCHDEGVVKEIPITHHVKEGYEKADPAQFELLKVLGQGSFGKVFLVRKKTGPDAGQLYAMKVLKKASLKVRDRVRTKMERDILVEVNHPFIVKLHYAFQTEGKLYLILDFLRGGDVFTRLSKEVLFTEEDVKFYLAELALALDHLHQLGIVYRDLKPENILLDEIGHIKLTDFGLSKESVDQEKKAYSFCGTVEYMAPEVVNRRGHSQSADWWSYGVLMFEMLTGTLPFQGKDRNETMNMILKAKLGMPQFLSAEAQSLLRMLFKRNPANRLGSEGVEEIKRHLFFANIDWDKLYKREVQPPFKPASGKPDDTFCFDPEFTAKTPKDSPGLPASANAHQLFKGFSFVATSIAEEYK

SLK = biological target: T7, SLK (Homo sapiens, UniProt Q9H2G2); test: KINOMEscan competitive binding; conditions: n=1, read-out: Percent inhibition, SLK
T7 construct: purchased DiscoverX (KINOMEscan)
T7 sequence (Q9H2G2 whole entry): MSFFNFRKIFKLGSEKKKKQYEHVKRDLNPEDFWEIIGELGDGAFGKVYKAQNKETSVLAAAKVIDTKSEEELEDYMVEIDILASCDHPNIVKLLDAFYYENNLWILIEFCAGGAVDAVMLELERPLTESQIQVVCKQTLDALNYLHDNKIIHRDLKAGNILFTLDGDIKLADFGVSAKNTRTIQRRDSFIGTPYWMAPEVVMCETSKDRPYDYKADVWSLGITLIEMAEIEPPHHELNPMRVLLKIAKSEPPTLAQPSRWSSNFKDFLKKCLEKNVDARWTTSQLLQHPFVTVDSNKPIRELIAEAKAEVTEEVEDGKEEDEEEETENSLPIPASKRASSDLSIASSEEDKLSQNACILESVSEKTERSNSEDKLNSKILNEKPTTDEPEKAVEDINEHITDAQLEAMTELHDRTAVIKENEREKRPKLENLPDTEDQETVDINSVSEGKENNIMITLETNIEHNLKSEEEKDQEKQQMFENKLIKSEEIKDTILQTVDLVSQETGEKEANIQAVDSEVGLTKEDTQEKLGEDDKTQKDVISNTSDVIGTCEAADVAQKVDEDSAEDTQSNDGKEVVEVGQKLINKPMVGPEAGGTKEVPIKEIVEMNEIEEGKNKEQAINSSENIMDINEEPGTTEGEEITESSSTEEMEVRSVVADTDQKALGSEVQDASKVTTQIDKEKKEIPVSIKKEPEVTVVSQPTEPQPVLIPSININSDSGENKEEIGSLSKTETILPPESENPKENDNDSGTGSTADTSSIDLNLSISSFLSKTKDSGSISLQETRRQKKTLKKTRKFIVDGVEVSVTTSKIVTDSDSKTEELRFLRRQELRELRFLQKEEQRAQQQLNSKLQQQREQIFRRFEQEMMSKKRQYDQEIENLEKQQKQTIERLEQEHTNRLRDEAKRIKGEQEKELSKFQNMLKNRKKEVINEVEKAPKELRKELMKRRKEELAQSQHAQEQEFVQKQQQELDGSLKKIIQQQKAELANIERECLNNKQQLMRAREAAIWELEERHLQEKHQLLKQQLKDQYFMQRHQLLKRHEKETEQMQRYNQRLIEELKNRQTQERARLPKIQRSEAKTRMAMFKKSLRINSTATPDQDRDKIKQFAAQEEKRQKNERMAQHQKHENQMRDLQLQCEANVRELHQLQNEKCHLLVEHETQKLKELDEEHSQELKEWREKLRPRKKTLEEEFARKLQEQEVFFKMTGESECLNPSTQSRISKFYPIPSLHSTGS

SRPK1 = biological target: T8, SRPK1 (Homo sapiens, UniProt Q96SB4); test: KINOMEscan competitive binding; conditions: n=1, read-out: Percent inhibition, SRPK1
T8 construct: purchased DiscoverX (KINOMEscan)
T8 sequence (Q96SB4 whole entry): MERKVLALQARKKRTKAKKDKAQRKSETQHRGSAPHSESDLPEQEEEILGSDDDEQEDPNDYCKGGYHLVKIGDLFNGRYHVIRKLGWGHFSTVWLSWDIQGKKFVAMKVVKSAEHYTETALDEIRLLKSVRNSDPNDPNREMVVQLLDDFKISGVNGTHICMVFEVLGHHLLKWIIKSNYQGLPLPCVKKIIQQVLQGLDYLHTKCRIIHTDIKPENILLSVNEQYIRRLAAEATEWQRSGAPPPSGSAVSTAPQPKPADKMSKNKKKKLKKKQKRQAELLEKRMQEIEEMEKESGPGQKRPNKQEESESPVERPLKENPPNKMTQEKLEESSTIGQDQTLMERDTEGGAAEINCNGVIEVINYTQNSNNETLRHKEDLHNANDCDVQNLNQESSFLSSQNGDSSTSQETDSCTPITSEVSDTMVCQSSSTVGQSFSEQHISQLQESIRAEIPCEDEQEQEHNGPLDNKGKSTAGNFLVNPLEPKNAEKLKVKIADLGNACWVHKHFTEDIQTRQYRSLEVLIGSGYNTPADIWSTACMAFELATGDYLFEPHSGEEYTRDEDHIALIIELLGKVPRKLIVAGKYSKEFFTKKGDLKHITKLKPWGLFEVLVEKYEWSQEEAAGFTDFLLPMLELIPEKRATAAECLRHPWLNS

TXK = biological target: T9, TXK (Homo sapiens, UniProt P42681); test: KINOMEscan competitive binding; conditions: n=1, read-out: Percent inhibition, TXK
T9 construct: purchased DiscoverX (KINOMEscan)
T9 sequence (P42681 1-527): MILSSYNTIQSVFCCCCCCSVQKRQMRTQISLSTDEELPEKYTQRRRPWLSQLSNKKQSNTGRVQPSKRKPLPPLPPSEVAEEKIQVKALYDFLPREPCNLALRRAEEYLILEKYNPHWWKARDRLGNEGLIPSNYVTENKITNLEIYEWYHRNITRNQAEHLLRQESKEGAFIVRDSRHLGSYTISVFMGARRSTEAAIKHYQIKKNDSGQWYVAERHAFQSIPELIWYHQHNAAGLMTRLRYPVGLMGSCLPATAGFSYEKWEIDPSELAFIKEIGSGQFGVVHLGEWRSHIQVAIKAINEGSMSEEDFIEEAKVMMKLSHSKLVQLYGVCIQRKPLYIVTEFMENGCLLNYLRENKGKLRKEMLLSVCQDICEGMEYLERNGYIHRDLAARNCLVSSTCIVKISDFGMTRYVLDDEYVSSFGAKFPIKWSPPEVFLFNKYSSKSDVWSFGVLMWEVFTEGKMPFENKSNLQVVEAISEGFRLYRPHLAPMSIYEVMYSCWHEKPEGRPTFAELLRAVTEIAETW

TYK2(Kin.Dom.2) = biological target: T10, TYK2(Kin.Dom.2) (Homo sapiens, UniProt P29597); test: KINOMEscan competitive binding; conditions: n=1, read-out: Percent inhibition, TYK2(Kin.Dom.2)
T10 construct: TYK2(Kin.Dom.2); purchased DiscoverX (KINOMEscan)
T10 sequence (P29597 889-1187 limits assumed): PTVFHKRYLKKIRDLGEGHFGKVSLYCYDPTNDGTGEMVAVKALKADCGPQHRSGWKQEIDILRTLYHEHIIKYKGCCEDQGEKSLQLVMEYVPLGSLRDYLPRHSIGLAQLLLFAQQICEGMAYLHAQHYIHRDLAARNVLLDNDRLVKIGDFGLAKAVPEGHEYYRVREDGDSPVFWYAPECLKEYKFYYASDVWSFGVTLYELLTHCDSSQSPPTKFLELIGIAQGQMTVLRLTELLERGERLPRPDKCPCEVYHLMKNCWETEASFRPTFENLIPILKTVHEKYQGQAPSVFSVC

Structure (SMILES) | CC50 at 48 h [1] | inhibition at 10 µM (PAK1) | inhibition at 10 µM (PDPK1) | inhibition at 10 µM (PKN2) | inhibition at 10 µM (RAF1) | inhibition at 10 µM (RPS6KA4(Kin.Dom.1)) | inhibition at 10 µM (RPS6KA6(Kin.Dom.1)) | inhibition at 10 µM (SLK) | inhibition at 10 µM (SRPK1) | inhibition at 10 µM (TXK) | inhibition at 10 µM (TYK2(Kin.Dom.2))
CN1CCN(c2ccc(Nc3nccc(-c4cnn5ncccc45)n3)cc2C#N)CC1 [Compound 1] | > 100 µM | 99.8% | 0% | 67.8% | 0% | 0% | 0% | 98.1% | 95.5% | 0% | 88.2%
COc1ccc(Nc2nccc(-c3cnn4ncccc34)n2)cc1 [Compound 2] | > 100 µM | 0% | 0% | 0% | 0% | 0% | 0% | 77.9% | 90.6% | 0% | 0%
Cc1ccc(O)cc1Nc1ccnc(Nc2cccc(C(N)=O)c2)n1 [Compound 3] | 33.1 µM | 79.3% | 0% | 0% | 74.3% | 0% | 0% | 83.5% | 0% | 100% | 94%
Cc1ccc(O)cc1N(C)c1ccnc(Nc2cccc(S(N)(=O)=O)c2)n1 [Compound 4] |  | 98.5% | 0% | 0% | 94.2% | 0% | 0% | 99.5% | 0% | 100% | 95.6%
Fc1cccc(COc2ccc(Nc3ncnc4c3CN(CCN3CCOCC3)CC4)cc2Cl)c1 [Compound 6] | 46.7 µM | 0% | 0% | 71.4% | 0% | 0% | 0% | 0% | 0% | 0% | 0%
COc1cc(Nc2nccc(-c3sc(N)nc3-c3cccc(NC(=O)c4c(F)cccc4F)c3)n2)cc(OC)c1OC [Compound 7] | 2.6 µM | 99.8% | 68.3% | 0% | 100% | 98.9% | 83.2% | 99.8% | 0% | 90.4% | 97.2%
C[C@@H](Oc1cc(-c2cnc3ccccn23)sc1C(N)=O)c1ccccc1Cl [Compound 8] |  | 0% | 0% | 79.3% | 0% | 0% | 0% | 100% | 96.1% | 0% | 0%
c1ccc(COc2cccc(-c3ccnc4[nH]ccc34)c2)cc1 [Compound 9] |  | 0% | 0% | 0% | 0% | 0% | 0% | 0% | 71.2% | 0% | 0%
Clc1ccc(Nc2ncc(-c3ccccc3)s2)cc1 [Compound 10] |  | 0% | 0% | 0% | 0% | 0% | 0% | 0% | 0% | 0% | 0%
Nc1ncc2c(-c3ccncc3)c[nH]c2n1 [Compound 11] | 50.1 µM | 0% | 79.6% | 0% | 0% | 0% | 0% | 75.5% | 0% | 0% | 0%
